Test results taken from patent US20030195169A1, “Phosphate prodrugs of fluorooxindoles” (priority 2002, published 2003).

Key:
[1] = Solubility (qualitative statements); type: physicochemical
[2] = tested on: rat traumatic brain injury (TBI) model; test: Rat traumatic brain injury (lateral fluid percussion) model, intracranial pressure (ICP) measurement; type: in vivo; details: 0.08 mg/kg
Protocol: To determine the ability of the compounds of the present invention to decrease the amount of neuronal damage following head injury, a standard model of traumatic brain injury was employed. The rat traumatic brain injury (TBI) model is used to evaluate compounds for effectiveness in reversing or preventing the deleterious effects of a concussion-like injury. In general, rats in this model were anesthetized, a craniotomy is performed (surgical opening of the skull), and then saline was injected into the opening to produce a precise pulse of increased intracranial pressure (commonly called a fluid percussion injury). Animals were administered compound at the specified doses at 15 minutes following trauma. Animals were euthanized 48 hours post TBI.
Moderate diffuse brain injury (defined by McIntosh, et al. Neuroscience, 28:233-44 (1989)) was induced by a fluid-percussion device. The apparatus produces contusion via the rapid injection of a saline pulse [˜2.1 to 2.7 atmospheres of pressure (atm)] at a constant duration (21-23 millisecond) into a closed cranial cavity. The saline pulse results in the brief displacement and deformation of the underlying cortex. This model is thought to mimic the clinical situation where a patient experiences a concussion-like injury characterized by brief neurological and systemic physiological alterations without severe structural damage. The fluid percussion device produces brain injury without directly impacting the brain. Diffuse brain injury is achieved by the release of a weighted (4.8 kg) metal pendulum from a predetermined height (McIntosh, et al 1989) that strikes a cork-covered piston at the end of a Plexiglass cylindrical reservoir filled with isotonic saline. Varying volumes of saline are injected into the closed cranial cavity producing a pulse of increased intracranial pressure (ICP). Varying the height of the pendulum controls the magnitude of the injury.
In an alternate method, the severity of brain damage was assessed by Intracranial Pressure (ICP) measurement at various intervals post fluid percussion up to 24 hours. In brief, prior to the fluid percussion a burr hole was made 1 mm from the sagittal suture, centered over the right parietal cortex 5 mm from lambda, 5 mm from bregma. Following fluid percussion injury, the trauma cap and cranioplastic cement were removed. In order to achieve adequate ICP values, while still under anesthesia, the craniotomy cap was re-inserted in its original location post fluid percussion. Pre-cut sterile foil was also placed over the craniotomy cap. Cranioplastic cement was placed over the foil to seal the brain cavity. To obtain continuous ICP measurements the probe was inserted into the burr hole and fixed by cranioplastic cement, the animal was then sutured (using 3-0) and the rat was placed in a Hopper cage to allow for free movement during the experiment. Next, the ICP transducer was connected to a Codman ICP monitor for continuous ICP measurements up to 24 hrs post-TBI or post-sham injury. During this time the animal had regular access to water and food. At 24 hrs post-TBI the experiment was terminated and animals were euthanatized by sodium pentobarbital overdose (130 mg/kg; i.p.).
These experiments consist of a sham-vehicle group (SV), a TBI-vehicle group (TV), sham-drug treated groups (SD; 0.08 mg/kg compound of Example 14 [dose equivalent of 0.05 mg/kg compound of Formula (S)-II]) and TBI-drug treated groups (TD; 0.08 mg/kg compound of Example 14). Each sham group acted as a control for the corresponding TBI group. All of the animals underwent anesthesia and surgery. In the TBI groups, brain injury was induced using the lateral fluid-percussion model. Drug treatment was initiated at 15 minutes post-TBI or sham-injury. […] Five minutes post injury absolute ICP (raw data) increased 6.8 mmHg units in TV animals compared to SV animals (SV-5.55 vs. TV-12.35). […]

[3] = tested on: cloned mammalian (mSlo or hSlo) BK channels heterologously expressed in Xenopus oocytes; test: BK-mediated outward current, two-electrode voltage clamp in Xenopus oocytes; type: cell-based; details: 10 μM; at least 5 oocytes
Protocol: (§1) The ability of the compound of Formula II to open BK channels and increase whole-cell outward (K^+) BK-mediated currents was assessed under voltage-clamp conditions by determining their ability to increase cloned mammalian (mSlo or hSlo) BK-mediated outward current heterologously expressed in Xenopus oocytes [Butler, A., et al., Science, 261, pp. 221-224 (1993); and Dworetzky, S. I., et al., Mol. Brain Res., 27, pp. 189-193 (1994)]. The two BK constructs employed represent nearly structurally identical homologous proteins, and have proven to be pharmacologically identical in our tests. To isolate BK current from native (background, non-BK) current, the specific and potent BK channel-blocking toxin iberiotoxin (IBTX) [Galvez, A., et al., J. Biol. Chem, 265, pp. 11083-11090 (1990)] was employed at a supramaximal concentration (50 nM). The relative contribution of BK channels current to total outward current was determined by subtraction of the current remaining in the presence of IBTX (non-BK current) from the current profiles obtained in all other experimental conditions (control, drug, and wash). […] The compound of Formula II was shown in at least 5 oocytes at a concentration of 10 μM to increase BK current to 170% of control of IBTX-sensitive current. […]

[4] = tested on: non-BK native currents in the oocytes; test: Non-BK native currents in oocytes (current remaining in presence of IBTX); type: cell-based, Xenopus; details: at the tested concentration
Protocol: as §1

[5] = tested on: focal cerebral ischemia (MCAO) in the Wistar rat; test: Focal stroke model, permanent MCA/CCA occlusion; type: in vivo; details: 0.3 mg/kg intravenously, single bolus two hours after MCAO; vs vehicle-treated control; 24 hours after MCAO
Protocol: To determine the ability of the compounds of the present invention to reduce cell loss resulting from neuronal ischemia, a standard focal cerebral ischemia is induced by permanent occlusion of the left middle cerebral artery (MCA) and common carotid artery (CCA) with one hour occlusion of the right CCA in the Wistar rat. The surgeries are performed using the sub-temporal approach of A. Tamura, et al., J. Cereb. Blood Flow Metab., 1, pp. 53-60, (1981) and its modifications [K. Osborne, et al., J. Neurol Neurosurg. Psychiatry, 50, pp. 402-410 (1987) and S. Menzies, et al., Neurosurgery, 31, pp. 100-107, (1992)].
The compound of Formula II was evaluated in the focal stroke model involving permanent occlusion of the left MCA (MCAO) and CCA (CCAO) and temporary occlusion of the right CCA in the Wistar rat [Gribkoff, et al. Nature Med. 7, pp. 471-477 (2001)]. This procedure results in a reliably large neocortical infarct volume that is measured by means of vital dye exclusion in serial slices through the brain 24 hours after MCAO. In the present test, compounds were administered using an i.v. or i.p. route of administration two hours after occlusion.

[6] = Rat blood levels of compound (S)-II after prodrug administration; type: in vivo, male Sprague-Dawley rats; details: intravenous bolus, dose equivalent to 1 mg/kg of (S)-II; whole blood; LC/MS/MS; n=3 rats/timepoint
Protocol: The compound of Formula (S)-II or a prodrug of Formula I was administered intravenous bolus to male Sprague-Dawley rats (n=3 rats/timepoint) at a target dose equivalent to 1 mg/kg of the compound of Formula (S)-II. At T=0.25, 1 and 2 hours post-dose, whole blood samples were collected and extracted with acetonitrile. Blood extracts were analyzed by LC/MS/MS for levels of the compound of Formula (S)-II.

[7] = cited from earlier work

## COc1ccc(Cl)cc1[C@]1(F)C(=O)N(COP(=O)([O-])[O-])c2cc(C(F)(F)F)ccc21.[Mg+2] [Example 18, (S)-Phosphoric acid mono-[3-(5-chloro-2-methoxy-phenyl)-3-fluoro-2-oxo-6-trifluoromethyl-2,3-dihydro-indol-1-ylmethyl] ester, magnesium salt]
[1]
  solubility in water: marginally soluble in water
[1]; relative to water
  solubility in organic solvents: more soluble in organic solvents

## COc1ccc(Cl)cc1[C@]1(F)C(=O)N(COP(=O)([O-])[O-])c2cc(C(F)(F)F)ccc21.[K+].[K+] [Example 14, (S)-Phosphoric acid mono-[3-(5-chloro-2-methoxy-phenyl)-3-fluoro-2-oxo-6-trifluoromethyl-2,3-dihydro-indol-1-ylmethyl] ester, potassium salt]
[2]; 30 minutes post injury
  intra-animal mean ICP reduction, TD: −2.85 mmHg
[2]; 45 minutes post injury
  intra-animal mean ICP reduction, TD: −3.95 mmHg
[2]; 45 minutes, 60 minutes, 2, 3, 4 and 24 hours post-TBI
  absolute ICP, TD vs TV, significance: significantly different from TV
[2]; 60 min post injury
  intra-animal mean ICP reduction, TD: −4.5 mmHg
[2]; 60 minutes post injury (45 minutes post-drug injection)
  reduction of absolute ICP, TD vs TV: 3.1 mmHg units
[2]; 2 hours post injury
  intra-animal mean ICP reduction, TD: −4.3 mmHg
[2]; 3 hr post injury
  intra-animal mean ICP reduction, TD: −4.3 mmHg
[2]; 4 hours post injury
  intra-animal mean ICP reduction, TD: −4.15 mmHg
[2]; 4 hours post-sham injury
  intra-animal mean ICP reduction, sham-drug group (SD): −2.1 mmHg
[2]; 24 hours post injury
  intra-animal mean ICP reduction, TD: −3.05 mmHg
[2]; sham injury, until 4 hours post-sham injury
  ICP, SD vs SV, significance: did not significantly differ from SV

## COc1ccc(Cl)cc1C1(F)C(=O)Nc2cc(C(F)(F)F)ccc21 (racemic) [compound of Formula II, 3-(5-chloro-2-methoxyphenyl)-1,3-dihydro-3-fluoro-6-(trifluoromethyl)-2H-indol-2-one]
[3]
  BK current, % of control of IBTX-sensitive current: 170 % of control
[4]
  effect on non-BK native currents in the oocytes: did not effect non-BK native currents
[5]
  reduction of cortical infarct volume: about 28%

## (S)-Phosphoric acid mono-[3-(5-chloro-2-methoxy-phenyl)-3-fluoro-2-oxo-6-trifluoromethyl-2,3-dihydro-indol-1-ylmethyl] ester, mono tetrabutylammonium salt [Example 2]
[6]
  Truncated Blood AUC(0.25-2 hr) Compound of Formula (S)-II: 188 ng·h/mL

## COc1ccc(Cl)cc1[C@]1(F)C(=O)Nc2cc(C(F)(F)F)ccc21 [Compound of Formula (S)-II, (3S)-(+)-(5-chloro-2-methoxyphenyl)-1,3-dihydro-3-fluoro-6-(trifluoromethyl)-2H-indol-2-one]
[7]
  aqueous solubility: low aqueous solubility
